The NIST ThermoML archive (doi:10.1021/je049875+)
± gives the expanded uncertainty stated by the source.

Test: activity coefficient (dimensionless); of the first substance listed, at infinite dilution; xn = mol fraction of the nth substance listed
Conditions: 101.33 kPa, Liquid, Chromatography, x1 = 0

Row | SMILES | activity coefficient (303.25 K) | activity coefficient (313.25 K) | activity coefficient (323.25 K) | activity coefficient (333.25 K) | activity coefficient (343.25 K) | activity coefficient (308.95 K) | activity coefficient (318.25 K) | activity coefficient (323.15 K)
1 | CCOCC [diethyl ether] + O | 90.1 ± 5.4 | 113 ± 7 | 135 ± 8 | 158 ± 10 |  |  |  | 
2 | CCC(C)(C)OC [2-methoxy-2-methylbutane] + O | 643 ± 39 | 796 ± 48 | 942 ± 57 | 1080 ± 65 |  |  |  | 
3 | CCO [ethanol] + O | 5.03 ± 0.3 | 5.33 ± 0.32 | 5.54 ± 0.33 | 5.76 ± 0.34 | 5.96 ± 0.35 |  |  | 
4 | CCC(C)=O [butanone] + O | 29.5 ± 1.8 | 33.8 ± 2 | 35.9 ± 2.1 | 38.9 ± 2.3 |  |  |  | 
5 | CC(C)=O [acetone] + O | 8.02 ± 0.48 | 9.2 ± 0.6 | 9.81 ± 0.58 | 10.3 ± 0.6 |  |  |  | 
6 | COC=O [methyl methanoate] + O | 18.7 ± 1.1 | 19.1 ± 1.1 | 19.5 ± 1.2 | 19.8 ± 1.2 |  |  |  | 
7 | Cc1ccccc1 [toluene] + O |  | 8090 ± 490 |  |  |  | 8570 ± 520 | 7720 ± 470 | 7110 ± 430

Continued, in another order:

Row | activity coefficient (303.25 K) | activity coefficient (313.25 K) | activity coefficient (323.25 K) | activity coefficient (333.25 K) | activity coefficient (343.25 K) | SMILES | activity coefficient (308.95 K) | activity coefficient (318.25 K) | activity coefficient (323.15 K)
8 | 53.8 ± 3.2 | 55.7 ± 3.3 | 57.1 ± 3.4 | 57.7 ± 3.5 |  | CCOC=O [ethyl methanoate] + O |  |  | 
9 | 105 ± 6 | 120 ± 7 | 128 ± 8 | 135 ± 8 |  | CCCC(C)=O [pentan-2-one] + O |  |  | 
10 | 297 ± 18 | 325 ± 20 | 341 ± 21 | 351 ± 21 | 348 ± 21 | CCCOC(C)=O [propyl ethanoate] + O |  |  | 
11 | 153 ± 9 | 195 ± 12 | 235 ± 14 | 278 ± 17 |  | COC(C)(C)C [2-methoxy-2-methylpropane] + O |  |  | 
12 | 76.5 ± 4.6 | 85 ± 5 | 90.1 ± 5.4 | 94.7 ± 5.7 | 96.2 ± 5.8 | CCOC(C)=O [ethyl acetate] + O |  |  | 
13 | 26.2 ± 1.6 | 28.4 ± 1.7 | 29.8 ± 1.8 | 31.2 ± 1.9 | 31.6 ± 1.9 | COC(C)=O [methyl ethanoate] + O |  |  | 
14 |  | 2370 ± 140 |  |  |  | c1ccccc1 [benzene] + O | 2470 ± 150 | 2250 ± 140 | 2140 ± 130
15 | 2520 ± 150 | 2880 ± 180 | 3230 ± 200 | 3230 ± 200 |  | CCCOCCC [dipropyl ether] + O |  |  | 
16 | 737 ± 44 | 965 ± 58 | 1140 ± 69 | 1310 ± 79 |  | CC(C)OC(C)C [diisopropyl ether] + O |  |  | 
